The numbers were not newly measured in patent US20190008784A1, “NOVEL SECNIDAZOLE SOFT GELATIN CAPSULE FORMULATIONS AND USES THEREOF” (SYMBIOMIX THERAPEUTICS, LLC, priority 2017, published 2019), which cites them from elsewhere.

The subject of data set [1] is bacterial vaginosis. Conditions: intravaginal 750 mg ovule compared with 500 mg ovule.
The test system of data set [2] is bacterial vaginosis. Conditions: 500 mg ovule formulation compared with 37.5 mg gel.

Consider `Cc1ncc([N+](=O)[O-])n1CCO` [metronidazole], for which, in the data set on bacterial vaginosis [1], the Cure rates result was “higher cure rates”. Moreover, the “Effectiveness in the treatment of bacterial vaginosis” value in the data set with bacterial vaginosis [2] was “significantly more effective”.
